Measurements taken from US11834696B2, “Antimicrobial susceptibility testing with large-volume light scattering imaging and deep learning video microscopy” (Arizona Board of Regents on behalf of Arizona State …, priority 2017, dated 2023).
Values after ≈ are worked out from the molar mass of the structure shown.

Legend:
E. coli [1] = experiment: Deep learning video microscopy-based antimicrobial susceptibility testing (DLVM-AST); format: cell-based, Escherichia coli (ATCC 43888); details: for MIC: Escherichia coli
E. coli [2] = experiment: AST without DL (division feature only, cell counting from the videos); format: cell-based, Escherichia coli (ATCC 43888); details: for MIC: Escherichia coli
Description: To further validate the DLVM-AST method, we counted the total number of bacteria cells (Ntotal) from the videos (as shown in FIG. 9), and plotted Ntotal (mean±std) vs. time for PMB at various concentrations (as shown in FIG. 11C).
Growth and preparation of E. coli. Frozen E. coli strains were thawed, and 50 μL of which were cultured in 5 mL of Luria-Bertani (LB) medium (Per liter: 10 g peptone 140, 5 g yeast extract, and 5 g sodium chloride) at 37° C. and 150 rpm for 16 hours. Saturated cultures in the volume of 20 μL were diluted into 5 mL of fresh LB medium, and growth continued at 37° C. with 150 rpm for 1 hour to attain a logarithmic phase of growth. Bacterial cells were collected by centrifugation at 450 g for 5 min and suspended in urine to a concentration of 2×10^7 cells/mL^36. This concentration was determined by measuring the extinction coefficients for E. coli from the Optical Density (OD600) reading taken with a spectrophototometer (NanoDrop™ 2000/2000c Spectrophotometers, Thermo Scientific). The calibration factor for bacterial cell cultures estimation was 8×10^8 cells/mL per OD600 unit. Before use, the bacteria-spiked urine samples were filtered using a 5 μm syringe filter (EMD Millipore) to remove large particles.
AST with video microscopy. The microfluidic chip was placed on an inverted microscope (Olympus IX-81) with a 40× phase contrast objective lens and imaged with a CCD camera (Pike-032B, Allied Vision Technologies, Newburyport, Mass.). A 200-μL bacterial suspension (2×10^7 cells/mL) was mixed with an equal volume of antibiotic solution for each antibiotic concentration or an equal volume of water as a control experiment. These mixed solutions were injected into different microfluidic channels simultaneously. After the microfluidic channels were fulfilled with these mixed solutions, two microfluidic valves of each detection channel were closed simultaneously to generate a stable microenvironment. Videos of the bacterial cells were recorded at 100 frames per second (fps) immediately (0 min) and after every 30 min. Each video lasted for 30 seconds. The raw images were batch-converted to 16-bit tiff format using a Matlab program and pre-processed to minimize background artifacts before being processed with the DL model. To include enough cells for reliable results, we integrated bacterial cells from three videos recorded from different experiments. Each experiment was repeated independently for three times.

E. coli [3] = experiment: microbe, parasite or virus in culture; format: cell-based, Escherichia coli (ATCC 43888); details: broth macrodilution, 37° C., triplicate; for MIC: Escherichia coli
Description: AST with broth macrodilution (BMD) method. For comparison, AST was also performed by the BMD method (CLSI gold standard^35). The adjusted inoculum E. coli suspension is diluted in Cation-adjusted Mueller Hinton Broth (CAMHB, Sigma-Aldrich) and the concentration of E. coli cell cultures are adjusted to 1×10^6 cells/mL based on UV-Vis spectrophotometer (NanoDrop 2000, Thermo Fisher) readings at OD600. […] After inoculation, each tube contains approximately 5×10^5 cells/mL. […] This test was performed in triplicate.

E. coli [4] = experiment: Phenotypic features (motion, morphology) in recorded bacteria videos in presence of antibiotics; format: cell-based, Escherichia coli; details: 3 hours
Description: Referring now simultaneously to FIG. 8A-FIG. 8C, phenotypic features in the recorded bacteria videos in the presence and absence of antibiotics are shown. […] Concentrations of PMB and aztreonam are 8 μg/mL and 0.5 μg/mL, respectively.
In principle, the raw bacterial videos could be used as inputs for a DL model, but the computational expense is impractical. In fact, few DL applications could use videos as input data directly even with high performance super-computers.^30-32 To overcome this difficulty, a method to compress the raw videos into static images without losing key phenotypic features was developed as described further below. This approach imitates human vision, which pre-processes raw images in the vision system to reduce complexity before passing them to the brain. The key phenotypic features in the video include cell division, motion, and morphology. […] Cell motion and morphology may also change when exposing the cell to antibiotics, thus serving as additional phenotypic features for AST. […]
AST with video microscopy. […] Videos of the bacterial cells were recorded at 100 frames per second (fps) immediately (0 min) and after every 30 min. […] To include enough cells for reliable results, we integrated bacterial cells from three videos recorded from different experiments. […]

[5] = system: E. coli O157 model strain; experiment: Susceptibility test with 40× optical microscope and imaging-processing algorithm tracking motion and growth; format: cell-based; details: @30 mins; concentrated bacterial samples
Excerpt: The inventors here have tested the susceptibility of E. coli O157 model strain to polymysin B (PMB, an antibiotic) using a 40× optical microscope. The individual bacterial cells 12 were identified, and their motions and growth were tracked using an imaging-processing algorithm. Inhibition curves were derived from the tracking data as shown below with respect to FIG. 4B and FIG. 4C. […] However, the experiment used concentrated bacterial samples, because the microscope has a small viewing size.

[6] = E. coli spiked in urine, triplicate
[7] = division feature only, triplicate

Compound | MIC (E. coli [1]; [6]) [µg/mL] | MIC (E. coli [2]; [7]) [µg/mL] | MIC (E. coli [3]) [µg/mL] | further results
CC1(C)S[C@@H]2[C@H](NC(=O)[C@H](N)c3ccccc3)C(=O)N2[C@H]1C(=O)O [Ampicillin, ampicillin] | 2 (≈ 5.72 µM) | 2 (≈ 5.72 µM) | 2 (≈ 5.72 µM) | 
C[C@H]1[C@H](NC(=O)/C(=N\OC(C)(C)C(=O)O)c2csc(N)n2)C(=O)N1S(=O)(=O)O [Aztreonam, aztreonam] | 0.12 (≈ 0.276 µM) | 0.12 (≈ 0.276 µM) | 0.12 (≈ 0.276 µM) | effect on bacterial morphology (E. coli [4]; aztreonam 0.5 μg/mL): caused the bacterial cells to elongate
[H]/N=C(/N)N[C@H]1[C@H](O)[C@@H](O)[C@H](O[C@@H]2O[C@@H](C)[C@](O)(C=O)[C@H]2O[C@@H]2O[C@@H](CO)[C@H](O)[C@@H](O)[C@@H]2NC)[C@@H](N/C(N)=N\[H])[C@@H]1O [Streptomycin, streptomycin] | 4 (≈ 6.88 µM) | 4 (≈ 6.88 µM) | 4 (≈ 6.88 µM) | 
polymyxin B |  |  |  | MIC, DLVM-AST (E. coli [1]; [6]): 2 µg/mL; MIC (concentration at which 90% of the bacterial cells are inhibited) (E. coli [1]; obtained 30 minutes after antibiotic treatment): 2 µg/mL; MIC from Ntotal vs. antibiotic concentration (E. coli [2]; at 180 minutes, cell counting): ~2 µg/mL; MIC, AST Without DL (E. coli [2]; [7]): 1 to 2 µg/mL; MIC, BMD (E. coli [3]): 2 µg/mL; MIC [5]: 2 µg/mL; effect on bacterial motion (E. coli [4]; PMB 8 μg/mL): decreased bacterial motion
O=C(O)c1cn(C2CC2)c2cc(N3CCNCC3)c(F)cc2c1=O [Ciprofloxacin, ciprofloxacin] |  | 0.015 to 0.03 (≈ 0.0453 to 0.0905 µM) |  | 
